# Results published in PubChem BioAssay AID328 (DTP/NCI, 2004).
# Several values for one entry are separate records, joined by “and”; a condition that tells them apart may be missing. Equal values may be shown once. Inconclusive results and toxic doses are left out.
# Tested on: BDF1 mice, P388 leukemia ip, median survival T/C
# Assay: NCI In Vivo Anticancer Drug Screen. Data for tumor model P388 Leukemia (intraperitoneal) in B6D2F1 (BDF1) mice
# Conditions: endpoint: median survival time, higher = longer survival
# How it was run: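 Each value expresses how treatment altered survival: treated-mouse outcome over vehicle-mouse outcome, both groups bearing the transplanted tumour.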
# [1] = dose: 25.0 mg/kg/injection, schedule: Q04DX003 (ip), vehicle: saline
# [2] = dose: 50.0 mg/kg/injection, schedule: Q01DX001 (ip), vehicle: saline
# [3] = dose: 50.0 mg/kg/injection, schedule: Q04DX003 (ip), vehicle: saline
# [4] = dose: 100.0 mg/kg/injection, schedule: Q04DX003 (ip), vehicle: saline
# [5] = dose: 6.25 mg/kg/injection, schedule: Q04DX003 (ip), vehicle: water
# [6] = dose: 100.0 mg/kg/injection, schedule: Q01DX009 (ip), vehicle: saline
# [7] = dose: 200.0 mg/kg/injection, schedule: Q01DX009 (ip), vehicle: saline
# [8] = dose: 200.0 mg/kg/injection, schedule: Q04DX003 (ip), vehicle: saline
# [9] = dose: 400.0 mg/kg/injection, schedule: Q04DX003 (ip), vehicle: saline
# [10] = dose: 50.0 mg/kg/injection, schedule: Q01DX009 (ip), vehicle: saline with Tween-80
# [11] = dose: 100.0 mg/kg/injection, schedule: Q01DX009 (ip), vehicle: saline with Tween-80
# [12] = dose: 200.0 mg/kg/injection, schedule: Q01DX009 (ip), vehicle: saline with Tween-80
# [13] = dose: 100.0 mg/kg/injection, schedule: Q04DX003 (ip), vehicle: saline with Tween-80
# [14] = dose: 200.0 mg/kg/injection, schedule: Q04DX003 (ip), vehicle: saline with Tween-80
# [15] = dose: 400.0 mg/kg/injection, schedule: Q04DX003 (ip), vehicle: saline with Tween-80
# [16] = dose: 100.0 mg/kg/injection, schedule: Q04DX003 (ip), vehicle: Klucel (hydroxypropylcellulose) (HPC)
# [17] = dose: 200.0 mg/kg/injection, schedule: Q04DX003 (ip), vehicle: Klucel (hydroxypropylcellulose) (HPC)
# [18] = dose: 400.0 mg/kg/injection, schedule: Q01DX009 (ip), vehicle: saline with Tween-80
# [19] = dose: 400.0 mg/kg/injection, schedule: Q04DX003 (ip), vehicle: Klucel (hydroxypropylcellulose) (HPC)
compound,measurement,setting,value
COc1cccc(N=C(N)N=C(N)N)c1,T/C,[1],95 % of control
same,T/C,[2],100 % of control
same,T/C,[3],91 % of control
same,T/C,"dose: 100.0 mg/kg/injection, schedule: Q01DX001 (ip), vehicle: saline",100 % of control
same,T/C,[4],95 % of control
C[n+]1c(-c2ccc(Cl)c(Cl)c2)c2cc(N)ccc2c2ccccc21,T/C,"dose: 0.78 mg/kg/injection, schedule: Q01DX009 (ip), vehicle: water",107 % of control
same,T/C,"dose: 0.78 mg/kg/injection, schedule: Q04DX003 (ip), vehicle: water",100 % of control
same,T/C,"dose: 1.56 mg/kg/injection, schedule: Q01DX009 (ip), vehicle: water",114 % of control
same,T/C,"dose: 1.56 mg/kg/injection, schedule: Q04DX003 (ip), vehicle: water",100 % of control
same,T/C,"dose: 3.12 mg/kg/injection, schedule: Q04DX003 (ip), vehicle: water",106 % of control
same,T/C,[5],106 % of control
same,T/C,"dose: 12.5 mg/kg/injection, schedule: Q01DX009 (ip), vehicle: water",109 % of control
COc1cc(N2CCOCC2)ccc1[N+](=O)[O-],T/C,[6],91 % of control
same,T/C,[4],109 % of control
same,T/C,[7],100 % of control
same,T/C,[8],104 % of control
same,T/C,[9],95 % of control
O=C1C2C(C(=O)N1c1ccc(OCc3ccccc3)cc1)C1c3ccccc3C2C2CCCCN21 (stereo not drawn),T/C,"dose: 3.13 mg/kg/injection, schedule: Q04DX003 (ip), vehicle: water",93 % of control
same,T/C,[5],101 % of control
same,T/C,"dose: 12.5 mg/kg/injection, schedule: Q04DX003 (ip), vehicle: water",97 % of control
same,T/C,"dose: 25.0 mg/kg/injection, schedule: Q04DX003 (ip), vehicle: water",101 % of control
same,T/C,"dose: 50.0 mg/kg/injection, schedule: Q04DX003 (ip), vehicle: water",99 % of control
Cn1c(N)c(N=Nc2ccccc2Cl)c(=O)n(C)c1=O,T/C,[10],98 % of control
same,T/C,[11],99 % of control
same,T/C,[12],100 % of control
CCCCCCCC(=O)CCCCC,T/C,[13],100 % of control
same,T/C,[14],95 % of control
same,T/C,[15],91 % of control
CCCCCCCCCCCCCCCCCCOc1cccc(C(F)(F)F)c1,T/C,"dose: 50.0 mg/kg/injection, schedule: Q01DX001 (ip), vehicle: saline with Tween-80",105 % of control
same,T/C,"dose: 100.0 mg/kg/injection, schedule: Q01DX001 (ip), vehicle: saline with Tween-80",100 % of control
same,T/C,"dose: 200.0 mg/kg/injection, schedule: Q01DX001 (ip), vehicle: saline with Tween-80",90 % of control
O=C(O)c1oc2ccccc2c1CO,T/C,[10],99 % of control
same,T/C,[11],101 % of control
same,T/C,[12],105 % of control
CCOCCN1C=C/C(=C/C=C/c2cc[n+](CCOCC)c3ccccc23)c2ccccc21,T/C,"dose: 0.22 mg/kg/injection, schedule: Q01DX009 (ip), vehicle: Klucel (hydroxypropylcellulose) (HPC)",100 % of control
same,T/C,"dose: 0.45 mg/kg/injection, schedule: Q01DX009 (ip), vehicle: Klucel (hydroxypropylcellulose) (HPC)",100 % of control
same,T/C,"dose: 0.9 mg/kg/injection, schedule: Q01DX009 (ip), vehicle: Klucel (hydroxypropylcellulose) (HPC)",105 % of control
N#CC1c2ccccc2C=CN1C(=O)c1ccccc1 (stereo not drawn),T/C,[10],115 % of control
same,T/C,[11],110 % of control
same,T/C,[16],100 % of control
same,T/C,[13],100 % of control
same,T/C,[12],110 % of control
same,T/C,[17],109 % of control
same,T/C,[14],100 % of control
same,T/C,[18],110 % of control
same,T/C,[19],109 % of control
same,T/C,[15],100 % of control
CC1(C)/C(=C/c2ccccc2)C(=O)c2ccccc21,T/C,"dose: 12.5 mg/kg/injection, schedule: Q04DX003 (ip), vehicle: saline",107 % of control
same,T/C,[1],118 % of control
same,T/C,[3],91 % of control
same,T/C,[4],103 % of control and 121 % of control
same,T/C,[8],102 % of control and 112 % of control
same,T/C,[9],110 % of control
CN(C)NCCC#N,T/C,"dose: 50.0 mg/kg/injection, schedule: Q01DX009 (ip), vehicle: saline",100 % of control
same,T/C,"dose: 66.0 mg/kg/injection, schedule: Q01DX009 (ip), vehicle: saline",111 % of control
same,T/C,"dose: 75.0 mg/kg/injection, schedule: Q01DX009 (ip), vehicle: saline",117 % of control
same,T/C,[6],100 % of control and 111 % of control
same,T/C,"dose: 150.0 mg/kg/injection, schedule: Q01DX009 (ip), vehicle: saline",118 % of control
same,T/C,[7],86 % of control
CN1Cc2cc3cc(c2O)C[N+](C)(C)Cc2c(Cl)c(c(Cl)c(c2Cl)C[N+](C)(C)C3)C1,T/C,"dose: 6.25 mg/kg/injection, schedule: Q01DX009 (ip), vehicle: saline",118 % of control
same,T/C,"dose: 8.2 mg/kg/injection, schedule: Q01DX009 (ip), vehicle: saline",108 % of control
same,T/C,"dose: 12.5 mg/kg/injection, schedule: Q01DX009 (ip), vehicle: saline",108 % of control
same,T/C,"dose: 25.0 mg/kg/injection, schedule: Q01DX001 (ip), vehicle: saline",104 % of control
same,T/C,"dose: 25.0 mg/kg/injection, schedule: Q01DX009 (ip), vehicle: saline",109 % of control
same,T/C,[2],100 % of control
same,T/C,"dose: 118.0 mg/kg/injection, schedule: Q01DX009 (ip), vehicle: saline",112 % of control
CCOC(=O)CSc1nc2nc(Cl)c(Cl)nc2[nH]1,T/C,"dose: 3.12 mg/kg/injection, schedule: Q04DX003 (ip), vehicle: saline with Tween-80",112 % of control
same,T/C,"dose: 6.25 mg/kg/injection, schedule: Q04DX003 (ip), vehicle: saline with Tween-80",102 % of control
same,T/C,"dose: 12.5 mg/kg/injection, schedule: Q04DX003 (ip), vehicle: saline with Tween-80",100 % of control
same,T/C,"dose: 25.0 mg/kg/injection, schedule: Q01DX009 (ip), vehicle: saline with Tween-80",88 % of control
same,T/C,"dose: 25.0 mg/kg/injection, schedule: Q04DX003 (ip), vehicle: saline with Tween-80",102 % of control
same,T/C,[10],106 % of control
same,T/C,"dose: 50.0 mg/kg/injection, schedule: Q04DX003 (ip), vehicle: saline with Tween-80",95 % of control and 102 % of control
same,T/C,[11],92 % of control
same,T/C,[13],103 % of control
same,T/C,[12],100 % of control
same,T/C,[14],97 % of control
same,T/C,[18],106 % of control
same,T/C,[15],108 % of control
Cc1ccc2c(c1)CN(Cc1ccccc1)CO2,T/C,[16],104 % of control
same,T/C,[17],100 % of control
same,T/C,[19],100 % of control
CN(CCO)C1=C(N2CC2)C(=O)C(N(C)CCO)=C(N2CC2)C1=O,T/C,"dose: 200.0 micrograms/kg/injection, schedule: Q01DX009 (ip), vehicle: saline",116 % of control
same,T/C,"dose: 400.0 micrograms/kg/injection, schedule: Q01DX009 (ip), vehicle: saline",157 % of control
same,T/C,"dose: 800.0 micrograms/kg/injection, schedule: Q01DX009 (ip), vehicle: saline",228 % of control
C/C(=C\c1ccc(Cl)cc1)C(C)(C)C(=O)O,T/C,[10],104 % of control
same,T/C,[11],102 % of control
same,T/C,[12],95 % of control
O=C(NS(=O)(=O)c1ccc(Cl)cc1)c1cccc2ccccc12,T/C,"dose: 25.0 mg/kg/injection, schedule: Q01DX009 (ip), vehicle: Klucel (hydroxypropylcellulose) (HPC)",95 % of control
same,T/C,"dose: 50.0 mg/kg/injection, schedule: Q01DX009 (ip), vehicle: Klucel (hydroxypropylcellulose) (HPC)",90 % of control
same,T/C,"dose: 100.0 mg/kg/injection, schedule: Q01DX009 (ip), vehicle: Klucel (hydroxypropylcellulose) (HPC)",109 % of control
COc1ccc(Nc2cccc(Cl)c2)c(C(=O)O)c1,T/C,"dose: 20.0 mg/kg/injection, schedule: Q01DX001 (ip), vehicle: Klucel (hydroxypropylcellulose) (HPC)",122 % of control
same,T/C,"dose: 40.0 mg/kg/injection, schedule: Q01DX001 (ip), vehicle: Klucel (hydroxypropylcellulose) (HPC)",100 % of control
same,T/C,"dose: 75.0 mg/kg/injection, schedule: Q01DX001 (ip), vehicle: Klucel (hydroxypropylcellulose) (HPC)",104 % of control
same,T/C,"dose: 150.0 mg/kg/injection, schedule: Q01DX001 (ip), vehicle: Klucel (hydroxypropylcellulose) (HPC)",100 % of control
O=C1c2ccccc2-c2ncccc21,T/C,[16],100 % of control
same,T/C,[17],95 % of control
COc1cc2c(c(OC)c1OC)C(=O)/C(=C\c1ccccc1)O2,T/C,[12],96 % of control
CC12NC(=O)NC1(C)NC(=O)N2 (stereo not drawn),T/C,[13],100 % of control
same,T/C,[14],100 % of control
CCCCOCN(COCCCC)c1ccc([N+](=O)[O-])cc1,T/C,[10],106 % of control
same,T/C,[11],104 % of control
same,T/C,[12],100 % of control
